The text below walks through data of US8871280B1, “Compositions and methods for treating fungal activity in plants or soil” (The United States of America, as represented by the …, priority 2011, dated 2014).

Structures are written as SMILES.

For test [1], the system named is Rhizoctonia solani. Briefly: Poison food technique (contact action), mycelial growth inhibition in PDA. The settings on record: for PoisonB1 % inhibition: poison bed experiment 1; for PoisonB2 % inhibition: poison bed experiment 2. It counts as cell-based, Rhizoctonia solani AG-4, isolate Rs 23A. As for the experimental part:
(§1) Fungal isolate and preparation of inoculum: Rhizoctonia solani AG-4, isolate Rs 23A is a highly virulent pathogenic isolate which infects many vegetables, ornamentals and turfgrasses (Lewis, J. A., and G. C. Papavizas, Soil Biology and Biochemistry, 9:195-201 (1987)). The fungus was grown in potato dextrose agar (PDA) plates and fungal plugs from the freshly growing mycelium were mixed with moist sterilized cracked wheat in a 2 L flask for 15 days in dark at 22° C. (Lakshman, D. K., et al., Proceedings of the National Academy of Science, USA, 95: 6425-6429 (1998)). The infested wheat was air dried in a sterile hood for 3 days, blended in a homogenizer and sieved through a mesh and stored at 2° C. before soil inoculation. A dose response of the inocula was carried out by thoroughly mixing using 0.25, 0.5, 0.75, 1.0, 1.25 and 1.50 g inoculums per Kg dry weight potting soil plus sterile water to maintain 25-30% moisture and incubating at room temperature for two weeks before sowing cucumber (cv muncher) seeds with the infested soil. The percent germination and post-emergence damping off of cucumber seedlings were recorded. The lowest inoculums dose that induced 100% postemergence damping off was estimated to be 1 to 1.25 g/Kg soil for inocula prepared over the span of the experiments. For soil fumigation with plant extracts (PEs), each time the minimum inoculum dose giving rise to 100% damping off was used.
In vitro bioassays: Two in vitro bioassay methods were used to investigate the mycelial growth inhibitory potentials of PEs. In the poison food technique, test chemical/plant extract was mixed at concentrations of 15, 30, 45, 60, 75, and 150 μl per 20 ml autoclaved PDA at 50° C., poured on three sterile disposable plastic plates (100×15 mm, Fisherbrand) at 20 ml/plate and cooled to room temperature to solidify (Dhingra, O.D., and J. B. Sinclair, 1995, Basic Plant Pathology Methods, 2nd Edition, Lewis Publishers, Boca Raton and London). […] Each plate was seeded in the center with a 5 mm diameter agar disk of the freshly grown Rhizoctonia pathogen, mycelial side facing the medium, and sealed with stretched Parafilm® M (Fisher Scientific). The plates were incubated in the dark at room temperature and when the pathogen reached to the edge of the plates in the control treatment (soybean oil), radial measurement of fungal growth in plates treated with PEs were recorded by taking three measurements from each plate. The experiment was repeated one more time. The percent mycelial growth inhibition (MGI) due to PE was calculated using the following formula: […] where dc=Avg. radial growth in mm of pathogen in control plate; dt=avg. radial growth in mm of pathogen in treated plate.

The subject of test [2] is Rhizoctonia solani. The experiment in a line: Fungicidal vs fungistatic potential (regrowth of mycelial plugs on fresh PDA, 7 days). The test is classed as cell-based, Rhizoctonia solani AG-4, isolate Rs 23A. As to the method:
The fungicidal and fungistatic potential of the PEs were determined by the method described by Garber and Houstan (Garber R. H., and B. R. Houston, Phytopathology, 49: 449-450 (1959)). In brief, three 5 mm diameter plugs were taken from the peripheral mycelial growth from each plate and placed in a fresh PDA plate. Following incubation at room temperature for 7 days, observations were recorded for new mycelial growth (fungistatic) or no mycelial growth (fungicidal). As control, peripheral mycelial plugs from soybean oil amended PDA plates were checked for fresh mycelial growth in fresh PDA plates.

Test [3] deals with Rhizoctonia solani. Briefly: Filter disk fumigation method, mycelial growth inhibition on PDA. The test is classed as cell-based, Rhizoctonia solani AG-4, isolate Rs 23A. Particulars: for Fumig1 % inhibition: fumigation experiment 1; for Fumig2 % inhibition: fumigation experiment 2. As for the experimental part:
as §1
In the second protocol, the chemical was kept not in direct contact with the fungus and we hypothesized that the plant extract will most likely influence the growth of the pathogen by fumigation action. In this approach, three sterile 15 mm filter paper (Whatman International Ltd, Maidstone, UK) disks were placed on the edge of each of three plates on the PDA. Each disk was impregnated in the center with various amounts (5-50 ul/disk) of the test solution/suspension. For negative control, only soybean oil was placed in the filter disk. […] The average radial growth was calculated and the experiment was repeated one more time. Percent growth inhibition was calculated as reported for poison bed assay.

Test [4] has as its system Rhizoctonia solani. The experiment in a line: Greenhouse suppression of damping off of cucumber seedlings in R. solani infested soil amended with plant extract. The test is classed as in vivo, Rhizoctonia solani AG-4, isolate Rs 23A. Particulars: cucumber damping off, soil amendment at 0.3% (v/w), four weeks after sowing.

For the compound `C=CC(C)(O)CCC=C(C)CCC=C(C)C` (mixture of isomers) [Nerolidol], the PoisonB1 % inhibition in the test with Rhizoctonia solani [1] (amount oil 15 μL/20 mL plate) is recorded as 71%; in the test with Rhizoctonia solani [1] (amount oil 30 μL/20 mL plate), 78%; in the test with Rhizoctonia solani [1] (amount oil 45 μL/20 mL plate), 83%; in the test with Rhizoctonia solani [1] (amount oil 60 μL/20 mL plate) it was 84%; with Rhizoctonia solani [1] (amount oil 75 μL/20 mL plate) it was 87%; in the test on Rhizoctonia solani [1] (amount oil 150 μL/20 mL plate) it was 89%. For the same compound, the PoisonB2 % inhibition turned out to be 78% with Rhizoctonia solani [1] (amount oil 15 μL/20 mL plate); 81% with Rhizoctonia solani [1] (amount oil 30 μL/20 mL plate); 87% with Rhizoctonia solani [1] (amount oil 45 μL/20 mL plate); 90% in the test with Rhizoctonia solani [1] (amount oil 60 μL/20 mL plate); 92% in the test on Rhizoctonia solani [1] (amount oil 75 μL/20 mL plate); 99% in the test on Rhizoctonia solani [1] (amount oil 150 μL/20 mL plate). The “Effect (fumigation)” value with Rhizoctonia solani [2] (amount oil 15 μL/20 mL plate), in the test with Rhizoctonia solani [2] (amount oil 30 μL/20 mL plate), in the test with Rhizoctonia solani [2] (amount oil 45 μL/20 mL plate), with Rhizoctonia solani [2] (amount oil 60 μL/20 mL plate), in the test with Rhizoctonia solani [2] (amount oil 75 μL/20 mL plate) and in the test on Rhizoctonia solani [2] (amount oil 150 μL/20 mL plate) was “S” in each case. Besides, the “Effect (poison bed, contact action)” value in the test with Rhizoctonia solani [2] (amount oil 15 μL/20 mL plate), in the test on Rhizoctonia solani [2] (amount oil 30 μL/20 mL plate), in the test with Rhizoctonia solani [2] (amount oil 45 μL/20 mL plate), in the test on Rhizoctonia solani [2] (amount oil 60 μL/20 mL plate), in the test with Rhizoctonia solani [2] (amount oil 75 μL/20 mL plate) and in the test with Rhizoctonia solani [2] (amount oil 150 μL/20 mL plate) was “S” in each case. The Fumig1 % inhibition with Rhizoctonia solani [3] (amount oil 15 μL/20 mL plate), in the test with Rhizoctonia solani [3] (amount oil 30 μL/20 mL plate), in the test on Rhizoctonia solani [3] (amount oil 45 μL/20 mL plate), in the test with Rhizoctonia solani [3] (amount oil 60 μL/20 mL plate), with Rhizoctonia solani [3] (amount oil 75 μL/20 mL plate) and in the test with Rhizoctonia solani [3] (amount oil 150 μL/20 mL plate) was 0% each time. Further, the Fumig2 % inhibition was determined as 0% in the test on Rhizoctonia solani [3] (amount oil 15 μL/20 mL plate); 40% in the test on Rhizoctonia solani [3] (amount oil 30 μL/20 mL plate); 42% in the test with Rhizoctonia solani [3] (amount oil 45 μL/20 mL plate); 41% with Rhizoctonia solani [3] (amount oil 60 μL/20 mL plate); 42% with Rhizoctonia solani [3] (amount oil 75 μL/20 mL plate); 41% in the test with Rhizoctonia solani [3] (amount oil 150 μL/20 mL plate).

In the case of `C=CCN=C=S` [Allyisothiocynate], the “Inhibition of R. solani growth by contact (poison bed assay), in words” value in the test on Rhizoctonia solani [1] (in vitro, PDA) is on record as “potent inhibitors”. Further, in the test with Rhizoctonia solani [2] (in vitro, fumigation and contact, all concentrations tested), the “Fungicidal vs fungistatic nature at all concentrations tested” value is listed as “fungicidal”. Moreover, the “Inhibition of R. solani growth by fumigation action, in words” value in the test with Rhizoctonia solani [3] (in vitro, filter disk) was “potent inhibitors”. Moreover, the “% Disease suppression (+ PE + R. solani)” value in the test with Rhizoctonia solani [4] is recorded as 88.92%.

With `C=CCN=C=S` [Allylisothiocyanate], the PoisonB1 % inhibition in the test on Rhizoctonia solani [1] (amount oil 15 μL/20 mL plate), with Rhizoctonia solani [1] (amount oil 30 μL/20 mL plate), in the test with Rhizoctonia solani [1] (amount oil 45 μL/20 mL plate), with Rhizoctonia solani [1] (amount oil 60 μL/20 mL plate), in the test with Rhizoctonia solani [1] (amount oil 75 μL/20 mL plate) and in the test with Rhizoctonia solani [1] (amount oil 150 μL/20 mL plate) was 100% throughout. Also, the PoisonB2 % inhibition in the test with Rhizoctonia solani [1] (amount oil 15 μL/20 mL plate), in the test on Rhizoctonia solani [1] (amount oil 30 μL/20 mL plate), with Rhizoctonia solani [1] (amount oil 45 μL/20 mL plate), with Rhizoctonia solani [1] (amount oil 60 μL/20 mL plate), with Rhizoctonia solani [1] (amount oil 75 μL/20 mL plate) and with Rhizoctonia solani [1] (amount oil 150 μL/20 mL plate) was 100% in each case. The Fumig1 % inhibition in the test with Rhizoctonia solani [3] (amount oil 15 μL/20 mL plate), in the test with Rhizoctonia solani [3] (amount oil 30 μL/20 mL plate), in the test with Rhizoctonia solani [3] (amount oil 45 μL/20 mL plate), with Rhizoctonia solani [3] (amount oil 60 μL/20 mL plate), in the test on Rhizoctonia solani [3] (amount oil 75 μL/20 mL plate) and with Rhizoctonia solani [3] (amount oil 150 μL/20 mL plate) was 100% each time. Further, the Fumig2 % inhibition with Rhizoctonia solani [3] (amount oil 15 μL/20 mL plate), with Rhizoctonia solani [3] (amount oil 30 μL/20 mL plate), in the test with Rhizoctonia solani [3] (amount oil 45 μL/20 mL plate), in the test on Rhizoctonia solani [3] (amount oil 60 μL/20 mL plate), in the test with Rhizoctonia solani [3] (amount oil 75 μL/20 mL plate) and in the test with Rhizoctonia solani [3] (amount oil 150 μL/20 mL plate) was 100% throughout.
